Tests used:
[1] = target: T1, ATP-binding cassette sub-family C member 4 (Homo sapiens, UniProt O15439); assay: TP_TRANSPORTER: inhibition of bimane-GS efflux in the presence of Indomethacin at a concentration of 50uM in MRP4-expressing HepG2 cells; assay type: functional, cell-based; parameters: scale not given: the % may be the effect or the level left; details: hepg2, 50 µM
T1 sequence (O15439 whole entry): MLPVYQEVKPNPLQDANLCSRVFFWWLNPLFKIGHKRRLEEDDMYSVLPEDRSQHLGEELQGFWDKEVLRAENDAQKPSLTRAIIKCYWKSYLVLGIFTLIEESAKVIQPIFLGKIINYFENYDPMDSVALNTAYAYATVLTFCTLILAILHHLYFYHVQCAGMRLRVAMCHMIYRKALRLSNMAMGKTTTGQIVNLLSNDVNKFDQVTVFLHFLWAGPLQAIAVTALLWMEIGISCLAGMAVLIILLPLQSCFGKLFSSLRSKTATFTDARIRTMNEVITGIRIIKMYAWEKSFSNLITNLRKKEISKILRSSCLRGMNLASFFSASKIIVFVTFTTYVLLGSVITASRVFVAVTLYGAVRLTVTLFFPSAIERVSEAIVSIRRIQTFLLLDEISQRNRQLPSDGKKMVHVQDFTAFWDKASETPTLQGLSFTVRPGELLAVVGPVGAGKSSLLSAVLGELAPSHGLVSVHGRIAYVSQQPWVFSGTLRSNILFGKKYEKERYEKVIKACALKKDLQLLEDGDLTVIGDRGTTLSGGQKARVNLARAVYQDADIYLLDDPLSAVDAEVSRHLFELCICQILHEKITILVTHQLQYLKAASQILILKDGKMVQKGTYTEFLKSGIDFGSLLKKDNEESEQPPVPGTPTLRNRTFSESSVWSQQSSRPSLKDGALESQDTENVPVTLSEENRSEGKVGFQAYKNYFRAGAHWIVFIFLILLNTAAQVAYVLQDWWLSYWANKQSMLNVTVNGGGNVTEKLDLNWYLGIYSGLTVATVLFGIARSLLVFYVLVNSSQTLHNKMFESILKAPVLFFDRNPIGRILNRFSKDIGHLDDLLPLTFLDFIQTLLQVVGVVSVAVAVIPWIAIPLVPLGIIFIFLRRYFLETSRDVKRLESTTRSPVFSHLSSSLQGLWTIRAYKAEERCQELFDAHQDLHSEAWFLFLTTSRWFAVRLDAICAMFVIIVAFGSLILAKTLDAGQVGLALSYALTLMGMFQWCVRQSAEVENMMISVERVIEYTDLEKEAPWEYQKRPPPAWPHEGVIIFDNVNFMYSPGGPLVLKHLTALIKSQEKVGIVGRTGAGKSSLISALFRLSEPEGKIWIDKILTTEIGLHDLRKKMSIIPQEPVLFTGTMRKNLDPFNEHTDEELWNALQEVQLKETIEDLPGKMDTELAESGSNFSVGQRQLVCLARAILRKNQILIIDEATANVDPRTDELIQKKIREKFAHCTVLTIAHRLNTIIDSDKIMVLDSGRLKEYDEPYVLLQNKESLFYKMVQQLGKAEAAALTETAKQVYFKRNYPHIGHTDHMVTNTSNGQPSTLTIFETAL

[2] = target: T1, ATP-binding cassette sub-family C member 4; assay: TP_TRANSPORTER: inhibition of bimane-GS efflux in the presence of 1-chloro-2,4-dinitrobenzen(2,4-dinitrophenyl-glutathione) at a concentration of 100uM in MRP4-expressing HepG2 cells; assay type: functional, cell-based; parameters: scale not given: the % may be the effect or the level left; details: hepg2, 100 µM
[3] = target: T1, ATP-binding cassette sub-family C member 4; assay: TP_TRANSPORTER: inhibition of bimane-GS efflux in the presence of Benzbromarone at a concentration of 5uM in MRP4-expressing HepG2 cells; assay type: functional, cell-based; parameters: scale not given: the % may be the effect or the level left; details: hepg2, 5 µM
[4] = target: T2, MRP4 (ATP-binding cassette sub-family C member 4) (Homo sapiens, UniProt O15439); assay: TP_TRANSPORTER: inhibition of bimane-GS efflux in the presence of 6-thioguanine at a concentration of 100uM in MRP4-expressing HepG2 cells; assay type: functional, cell-based; parameters: scale not given: the % may be the effect or the level left; details: probe bimane-GS, read-out: Activity
T2 sequence (O15439 whole entry): T1 sequence (O15439 whole entry)

[5] = target: T1, ATP-binding cassette sub-family C member 4; assay: TP_TRANSPORTER: inhibition of E217betaG uptake in membrane vesicles from MRP4-expressing Sf9 cells; assay type: functional, cell membranes, Membrane vesicle
[6] = target: T1, ATP-binding cassette sub-family C member 4; assay: TP_TRANSPORTER: efflux in MRP4-expressing HepG2 cells; assay type: functional, cell-based
[7] = target: T2, MRP4 (ATP-binding cassette sub-family C member 4); assay: TP_TRANSPORTER: inhibition of bimane-GS efflux in the presence of Methotrexate at a concentration of 100uM in MRP4-expressing HepG2 cells; assay type: functional, cell-based; parameters: scale not given: the % may be the effect or the level left; details: probe bimane-GS, read-out: Activity

Work on COc1ccc2c(c1)c(CC(=O)O)c(C)n2C(=O)c1ccc(Cl)cc1 [INDOMETHACIN] yielded an Activity [1] of 74%.

NC(CCC(=O)NC(CSc1ccc([N+](=O)[O-])cc1[N+](=O)[O-])C(=O)NCC(=O)O)C(=O)O.O=[N+]([O-])c1ccc(Cl)c([N+](=O)[O-])c1 (configuration not stated) gave an Activity [2] of 27%.

In the case of CCc1oc2ccccc2c1C(=O)c1cc(Br)c(O)c(Br)c1 [BENZBROMARONE], the Activity [3] is reported as 60%.

For Nc1nc2nc[nH]c2c(=S)[nH]1 [THIOGUANINE], the activity at 100 µM [4] was 53%.

Molecule C[C@]12CC[C@H](OS(=O)(=O)O)CC1=CC[C@@H]1[C@@H]2CC[C@]2(C)C(=O)CC[C@@H]12 [PRASTERONE SULFURIC ACID] has an IC50 [5] of 3 µM.

In the case of Cc1c(C)n2c(CSC[C@H](NC(=O)CC[C@H](N)C(=O)O)C(=O)CNC(=O)O)c(C)c(=O)n2c1=O [Bimane-glutathione], the Activity [6] is reported as “substrate []”.

For CN(Cc1cnc2nc(N)nc(N)c2n1)c1ccc(C(=O)N[C@@H](CCC(=O)O)C(=O)O)cc1 [METHOTREXATE], the activity at 100 µM [7] was 53%.
